Results published in ChEMBL document CHEMBL1141445, “Rhizochalins C and D from the sponge Rhizochalina incrustata. A rare threo-sphingolipid and a facile method for determination of the carbonyl position in alpha,omega-bifunctionalized ketosphingolipids” (2007).

Test system: Nakaseomyces glabratus
Experiment: Antifungal activity against fluconazole-resistant Candida glabrata
Assay type: functional
Details: read-out: ED50 (the source's name)

CC1[C@@H](CO)O[C@@H](O[C@H](CCCCCCCC(=O)CCCCCCCCCCCCCC[C@@H](O)[C@@H](C)N)[C@@H](N)CO)[C@H](O)[C@H]1O (some centres undefined) [OCEANAPISIDE]
EC50: 40 µM

C[C@@H](N)[C@H](O)CCCCCCCC(=O)CCCCCCCCCCCCCC[C@@H](O[C@@H]1O[C@H](CO)[C@H](O)[C@H](O)[C@H]1O)[C@@H](C)N [RHIZOCHALIN]
EC50: 40 µM

C[C@@H](N)[C@H](O)CCCCCCCCC(=O)CCCCCCCCCCCCCC[C@@H](O[C@@H]1O[C@H](CO)[C@H](O)[C@H](O)[C@H]1O)[C@@H](C)N [RHIZOCHALIN D]
EC50: > 150 µM

C[C@@H](N)[C@H](O)CCCCCCCC(=O)CCCCCCCCCCCCCC[C@@H](O[C@@H]1O[C@H](CO)[C@H](O)[C@H](O)[C@H]1O)[C@H](N)CO [RHIZOCHALIN C]
EC50: > 150 µM
